# Reference: article PMC6311682, “Design, Synthesis, and Biological Evaluation of 2-Nitroimidazopyrazin-one/-es with Antitubercular and Antiparasitic Activity” (Journal of Medicinal Chemistry, 2018)
# Test system: not listed separately
# Test: Kinetic solubility determination by LC-UV
# Conditions: PBS, pH 7.4, Solubility µM (PBS), PBS pH 7.4, 24 h, room temperature, 1% DMSO
row,Compound,solubility at 24 h
1,"O=c1c2nc([N+](=O)[O-])cn2ccn1Cc1ccccc1OC(F)(F)F [17i, 2-Nitro-7-(2-(trifluoromethoxy)benzyl)imidazo[1,2-a]pyrazin-8(7H)-one]",< 5 µM
2,"O=c1c2nc([N+](=O)[O-])cn2ccn1Cc1ccc(F)cc1F [17j, 7-(2,4-Difluorobenzyl)-2-nitroimidazo[1,2-a]pyrazin-8(7H)-one]",< 5 µM
3,"CC(c1ccc(F)cc1)n1ccn2cc([N+](=O)[O-])nc2c1=O (centres unmarked) [17l, 7-(1-(4-Fluorophenyl)ethyl)-2-nitroimidazo[1,2-a]pyrazin-8(7H)-one]",< 10 µM
4,"O=c1c2nc([N+](=O)[O-])cn2ccn1CCO [17p, 7-(2-Hydroxyethyl)-2-nitroimidazo[1,2-a]pyrazin-8(7H)-one]",> 200 µM
5,"O=C(Cn1ccn2cc([N+](=O)[O-])nc2c1=O)N1CCOCC1 [17r, 7-(2-Morpholino-2-oxoethyl)-2-nitroimidazo[1,2-a]pyrazin-8(7H)-one]",194 ± 0.526 µM
6,"NC(=O)Cn1ccn2cc([N+](=O)[O-])nc2c1=O [17s, 2-(2-Nitro-8-oxoimidazo[1,2-a]pyrazin-7(8H)-yl)acetamide]",> 200 µM

# Same assay, conditions: water, Solubility µM (H2O), 24 h, room temperature, 1% DMSO
row,Compound,solubility at 24 h
1,"O=c1c2nc([N+](=O)[O-])cn2ccn1Cc1ccccc1OC(F)(F)F [17i, 2-Nitro-7-(2-(trifluoromethoxy)benzyl)imidazo[1,2-a]pyrazin-8(7H)-one]",< 5 µM
2,"O=c1c2nc([N+](=O)[O-])cn2ccn1Cc1ccc(F)cc1F [17j, 7-(2,4-Difluorobenzyl)-2-nitroimidazo[1,2-a]pyrazin-8(7H)-one]",< 5 µM
3,"CC(c1ccc(F)cc1)n1ccn2cc([N+](=O)[O-])nc2c1=O (centres unmarked) [17l, 7-(1-(4-Fluorophenyl)ethyl)-2-nitroimidazo[1,2-a]pyrazin-8(7H)-one]",< 10 µM
4,"O=c1c2nc([N+](=O)[O-])cn2ccn1CCO [17p, 7-(2-Hydroxyethyl)-2-nitroimidazo[1,2-a]pyrazin-8(7H)-one]",> 200 µM
5,"O=C(Cn1ccn2cc([N+](=O)[O-])nc2c1=O)N1CCOCC1 [17r, 7-(2-Morpholino-2-oxoethyl)-2-nitroimidazo[1,2-a]pyrazin-8(7H)-one]",192 ± 1.51 µM
6,"NC(=O)Cn1ccn2cc([N+](=O)[O-])nc2c1=O [17s, 2-(2-Nitro-8-oxoimidazo[1,2-a]pyrazin-7(8H)-yl)acetamide]",> 200 µM

# Test system: L. donovani MHOM/IN/80/DD8 (ATCC50212)
# Test: L. donovani DD8 intracellular (THP-1) amastigote assay
# Type: cell-based
# Conditions: Leishmania donovani, read-out: antiparasitic IC50 L. donovani
row,Compound,IC50
1,"O=c1c2nc([N+](=O)[O-])cn2ccn1Cc1ccccc1OC(F)(F)F [17i, 2-Nitro-7-(2-(trifluoromethoxy)benzyl)imidazo[1,2-a]pyrazin-8(7H)-one]",> 40 µM
2,"O=c1c2nc([N+](=O)[O-])cn2ccn1Cc1ccc(F)cc1F [17j, 7-(2,4-Difluorobenzyl)-2-nitroimidazo[1,2-a]pyrazin-8(7H)-one]",> 40 µM
3,"CC(c1ccc(F)cc1)n1ccn2cc([N+](=O)[O-])nc2c1=O (centres unmarked) [17l, 7-(1-(4-Fluorophenyl)ethyl)-2-nitroimidazo[1,2-a]pyrazin-8(7H)-one]",> 80 µM
4,"O=c1c2nc([N+](=O)[O-])cn2ccn1CCO [17p, 7-(2-Hydroxyethyl)-2-nitroimidazo[1,2-a]pyrazin-8(7H)-one]",> 80 µM
5,"O=C(Cn1ccn2cc([N+](=O)[O-])nc2c1=O)N1CCOCC1 [17r, 7-(2-Morpholino-2-oxoethyl)-2-nitroimidazo[1,2-a]pyrazin-8(7H)-one]",> 80 µM
6,"NC(=O)Cn1ccn2cc([N+](=O)[O-])nc2c1=O [17s, 2-(2-Nitro-8-oxoimidazo[1,2-a]pyrazin-7(8H)-yl)acetamide]",> 80 µM

# Same assay, conditions: Leishmania donovani, read-out: antiparasitic pIC50 ± SE L. donovani (converted)
row,Compound,IC50
1,"O=c1c2nc([N+](=O)[O-])cn2ccn1Cc1ccccc1OC(F)(F)F [17i, 2-Nitro-7-(2-(trifluoromethoxy)benzyl)imidazo[1,2-a]pyrazin-8(7H)-one]",> 39.8 µM
2,"O=c1c2nc([N+](=O)[O-])cn2ccn1Cc1ccc(F)cc1F [17j, 7-(2,4-Difluorobenzyl)-2-nitroimidazo[1,2-a]pyrazin-8(7H)-one]",> 39.8 µM
3,"CC(c1ccc(F)cc1)n1ccn2cc([N+](=O)[O-])nc2c1=O (centres unmarked) [17l, 7-(1-(4-Fluorophenyl)ethyl)-2-nitroimidazo[1,2-a]pyrazin-8(7H)-one]",> 79.4 µM
4,"O=c1c2nc([N+](=O)[O-])cn2ccn1CCO [17p, 7-(2-Hydroxyethyl)-2-nitroimidazo[1,2-a]pyrazin-8(7H)-one]",> 79.4 µM
5,"O=C(Cn1ccn2cc([N+](=O)[O-])nc2c1=O)N1CCOCC1 [17r, 7-(2-Morpholino-2-oxoethyl)-2-nitroimidazo[1,2-a]pyrazin-8(7H)-one]",> 79.4 µM
6,"NC(=O)Cn1ccn2cc([N+](=O)[O-])nc2c1=O [17s, 2-(2-Nitro-8-oxoimidazo[1,2-a]pyrazin-7(8H)-yl)acetamide]",> 79.4 µM

# Test system: ESKAPE pathogens S. aureus (ATCC 43300), E. coli (ATCC 25922), K. pneumoniae (ATCC 700603), A. baumannii (ATCC 19606), P. aeruginosa (ATCC 27853)
# Test: Broth microdilution MIC assay, ESKAPE pathogens
# Type: cell-based
# Conditions: not given
row,Compound,antibacterial MIC ESKAPE
1,"O=c1c2nc([N+](=O)[O-])cn2ccn1Cc1ccccc1OC(F)(F)F [17i, 2-Nitro-7-(2-(trifluoromethoxy)benzyl)imidazo[1,2-a]pyrazin-8(7H)-one]",>32 µg/mL
2,"O=c1c2nc([N+](=O)[O-])cn2ccn1Cc1ccc(F)cc1F [17j, 7-(2,4-Difluorobenzyl)-2-nitroimidazo[1,2-a]pyrazin-8(7H)-one]",>32 µg/mL
3,"CC(c1ccc(F)cc1)n1ccn2cc([N+](=O)[O-])nc2c1=O (centres unmarked) [17l, 7-(1-(4-Fluorophenyl)ethyl)-2-nitroimidazo[1,2-a]pyrazin-8(7H)-one]",>32 µg/mL
4,"O=c1c2nc([N+](=O)[O-])cn2ccn1CCO [17p, 7-(2-Hydroxyethyl)-2-nitroimidazo[1,2-a]pyrazin-8(7H)-one]",>32 µg/mL
5,"O=C(Cn1ccn2cc([N+](=O)[O-])nc2c1=O)N1CCOCC1 [17r, 7-(2-Morpholino-2-oxoethyl)-2-nitroimidazo[1,2-a]pyrazin-8(7H)-one]",>32 µg/mL
6,"NC(=O)Cn1ccn2cc([N+](=O)[O-])nc2c1=O [17s, 2-(2-Nitro-8-oxoimidazo[1,2-a]pyrazin-7(8H)-yl)acetamide]",>32 µg/mL

# Test system: not listed separately
# Test: Broth microdilution MIC assay, ESKAPE pathogens
# Type: cell-based
# Conditions: S. aureus, E. coli, K. pneumoniae, A. baumannii, P. aeruginosa; read-out: antibacterial MIC ESKAPE
row,Compound,MIC
1,"O=c1c2nc([N+](=O)[O-])cn2ccn1Cc1ccccc1OC(F)(F)F [17i, 2-Nitro-7-(2-(trifluoromethoxy)benzyl)imidazo[1,2-a]pyrazin-8(7H)-one]",> 32 µg/mL
2,"O=c1c2nc([N+](=O)[O-])cn2ccn1Cc1ccc(F)cc1F [17j, 7-(2,4-Difluorobenzyl)-2-nitroimidazo[1,2-a]pyrazin-8(7H)-one]",> 32 µg/mL
3,"CC(c1ccc(F)cc1)n1ccn2cc([N+](=O)[O-])nc2c1=O (centres unmarked) [17l, 7-(1-(4-Fluorophenyl)ethyl)-2-nitroimidazo[1,2-a]pyrazin-8(7H)-one]",> 32 µg/mL
4,"O=c1c2nc([N+](=O)[O-])cn2ccn1CCO [17p, 7-(2-Hydroxyethyl)-2-nitroimidazo[1,2-a]pyrazin-8(7H)-one]",> 32 µg/mL
5,"O=C(Cn1ccn2cc([N+](=O)[O-])nc2c1=O)N1CCOCC1 [17r, 7-(2-Morpholino-2-oxoethyl)-2-nitroimidazo[1,2-a]pyrazin-8(7H)-one]",> 32 µg/mL
6,"NC(=O)Cn1ccn2cc([N+](=O)[O-])nc2c1=O [17s, 2-(2-Nitro-8-oxoimidazo[1,2-a]pyrazin-7(8H)-yl)acetamide]",> 32 µg/mL

# Test system: E. histolytica (HM1:IMSS)
# Test: ATP-bioluminescence cell growth and survival assay, E. histolytica trophozoites
# Type: cell-based
# Conditions: Entamoeba histolytica, read-out: antiparasitic IC50 E. histolytica
row,Compound,IC50
1,"O=c1c2nc([N+](=O)[O-])cn2ccn1Cc1ccccc1OC(F)(F)F [17i, 2-Nitro-7-(2-(trifluoromethoxy)benzyl)imidazo[1,2-a]pyrazin-8(7H)-one]",> 50 µM
2,"O=c1c2nc([N+](=O)[O-])cn2ccn1Cc1ccc(F)cc1F [17j, 7-(2,4-Difluorobenzyl)-2-nitroimidazo[1,2-a]pyrazin-8(7H)-one]",> 50 µM
3,"CC(c1ccc(F)cc1)n1ccn2cc([N+](=O)[O-])nc2c1=O (centres unmarked) [17l, 7-(1-(4-Fluorophenyl)ethyl)-2-nitroimidazo[1,2-a]pyrazin-8(7H)-one]",> 50 µM
4,"O=c1c2nc([N+](=O)[O-])cn2ccn1CCO [17p, 7-(2-Hydroxyethyl)-2-nitroimidazo[1,2-a]pyrazin-8(7H)-one]",> 50 µM
5,"O=C(Cn1ccn2cc([N+](=O)[O-])nc2c1=O)N1CCOCC1 [17r, 7-(2-Morpholino-2-oxoethyl)-2-nitroimidazo[1,2-a]pyrazin-8(7H)-one]",> 50 µM
6,"NC(=O)Cn1ccn2cc([N+](=O)[O-])nc2c1=O [17s, 2-(2-Nitro-8-oxoimidazo[1,2-a]pyrazin-7(8H)-yl)acetamide]",> 50 µM

# Same assay, conditions: Entamoeba histolytica, read-out: antiparasitic pIC50 ± SE E. histolytica (converted)
row,Compound,IC50
1,"O=c1c2nc([N+](=O)[O-])cn2ccn1Cc1ccccc1OC(F)(F)F [17i, 2-Nitro-7-(2-(trifluoromethoxy)benzyl)imidazo[1,2-a]pyrazin-8(7H)-one]",> 50.1 µM
2,"O=c1c2nc([N+](=O)[O-])cn2ccn1Cc1ccc(F)cc1F [17j, 7-(2,4-Difluorobenzyl)-2-nitroimidazo[1,2-a]pyrazin-8(7H)-one]",> 50.1 µM
3,"CC(c1ccc(F)cc1)n1ccn2cc([N+](=O)[O-])nc2c1=O (centres unmarked) [17l, 7-(1-(4-Fluorophenyl)ethyl)-2-nitroimidazo[1,2-a]pyrazin-8(7H)-one]",> 50.1 µM
4,"O=c1c2nc([N+](=O)[O-])cn2ccn1CCO [17p, 7-(2-Hydroxyethyl)-2-nitroimidazo[1,2-a]pyrazin-8(7H)-one]",> 50.1 µM
5,"O=C(Cn1ccn2cc([N+](=O)[O-])nc2c1=O)N1CCOCC1 [17r, 7-(2-Morpholino-2-oxoethyl)-2-nitroimidazo[1,2-a]pyrazin-8(7H)-one]",> 50.1 µM
6,"NC(=O)Cn1ccn2cc([N+](=O)[O-])nc2c1=O [17s, 2-(2-Nitro-8-oxoimidazo[1,2-a]pyrazin-7(8H)-yl)acetamide]",> 50.1 µM

# Test system: C. difficile (630, ATCC BAA-1382)
# Test: Broth microdilution MIC assay, C. difficile
# Type: cell-based, Clostridium difficile
# Conditions: 630 ATCC BAA-1382, median MIC
row,Compound,antibacterial MIC C. difficile
1,"CC(c1ccc(F)cc1)n1ccn2cc([N+](=O)[O-])nc2c1=O (centres unmarked) [17l, 7-(1-(4-Fluorophenyl)ethyl)-2-nitroimidazo[1,2-a]pyrazin-8(7H)-one]",>64 µg/mL
2,"O=c1c2nc([N+](=O)[O-])cn2ccn1CCO [17p, 7-(2-Hydroxyethyl)-2-nitroimidazo[1,2-a]pyrazin-8(7H)-one]",>64 µg/mL
3,"O=C(Cn1ccn2cc([N+](=O)[O-])nc2c1=O)N1CCOCC1 [17r, 7-(2-Morpholino-2-oxoethyl)-2-nitroimidazo[1,2-a]pyrazin-8(7H)-one]",>64 µg/mL
4,"NC(=O)Cn1ccn2cc([N+](=O)[O-])nc2c1=O [17s, 2-(2-Nitro-8-oxoimidazo[1,2-a]pyrazin-7(8H)-yl)acetamide]",>64 µg/mL

# Same assay, conditions: Clostridioides difficile, ATCCBAA1382; 630 ATCC BAA-1382, median MIC; read-out: antibacterial MIC C. difficile
row,Compound,MIC
1,"CC(c1ccc(F)cc1)n1ccn2cc([N+](=O)[O-])nc2c1=O (centres unmarked) [17l, 7-(1-(4-Fluorophenyl)ethyl)-2-nitroimidazo[1,2-a]pyrazin-8(7H)-one]",> 64 µg/mL
2,"O=c1c2nc([N+](=O)[O-])cn2ccn1CCO [17p, 7-(2-Hydroxyethyl)-2-nitroimidazo[1,2-a]pyrazin-8(7H)-one]",> 64 µg/mL
3,"O=C(Cn1ccn2cc([N+](=O)[O-])nc2c1=O)N1CCOCC1 [17r, 7-(2-Morpholino-2-oxoethyl)-2-nitroimidazo[1,2-a]pyrazin-8(7H)-one]",> 64 µg/mL
4,"NC(=O)Cn1ccn2cc([N+](=O)[O-])nc2c1=O [17s, 2-(2-Nitro-8-oxoimidazo[1,2-a]pyrazin-7(8H)-yl)acetamide]",> 64 µg/mL
